pKd: −log10 of the molar value. *1 amine or outer side, *2 acyl side, *3 side chain or, on linkers, in order; H or OH if unused. Where a SMILES comes first, the peptide text is derived from it. Bridges are numbered along the chain shown (N, C = ends). [ ]: non-standard residue; d: D form. Phenylene(1,4-NHCOCH2)2 = O=C(C[*:1])Nc1ccc(NC(=O)C[*:2])cc1; dNle = CCCC[C@@H](N)C(=O)O
The compounds below were run against T1, MDM2 (residues 25-109) (Homo sapiens, UniProt Q00987) (assay: SPR binding to immobilized biotinylated MDM2 25-109 (Biacore 8K)). Details: not given.
T1 construct: MDM2 (residues 25-109) with an N-terminal 6×His-yBBr-TEV tag was recombinantly expressed in E. coli; made in house; host or cells: E. coli BL21 CodonPlus
T1 sequence (Q00987 25-109): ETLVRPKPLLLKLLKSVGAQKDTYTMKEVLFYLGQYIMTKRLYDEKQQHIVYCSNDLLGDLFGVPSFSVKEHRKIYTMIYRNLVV
Protocol: SPR experiments were performed on a Biacore 8K (Cytiva) instrument at 25° C. in 1×HBS-P+ buffer (Cytiva) with 1% DMSO. A SA Series S sensor chip was docked and pre-conditioned with three injections of 50 mM NaOH/1 M NaCl to remove unbound streptavidin from the surface. Biotinylated MDM2^25-109 were diluted to 2 μg/mL in running buffer and immobilized to channels 1 through 8 at 5 μL/min for 71 sec for a final immobilization level of ˜390 RU. Peptides were diluted to 5 μM in running buffer then serially diluted 2-fold for a total of seven concentrations with one blank (7-point two-fold peptide dilution series with top concentration=5 μM and bottom concentration=78 nM). Compounds were injected over the immobilized and reference surfaces at 30 μL/min for 60 sec and then allowed to dissociate for 180 sec without surface regeneration (N=1). Data was analyzed using Biacore Insight Evaluation software (Cytiva). Sensorgrams were double referenced, with most of them fitted to a 1:1 steady state affinity model, with a few fitted with both steady state affinity model and kinetics model.
MDM2 expression: MDM2 (residues 25-109) with an N-terminal 6×His-yBBr-TEV tag was recombinantly expressed in E. coli BL21 CodonPlus cells (Agilent) from pET-derived expression vectors (Novagen) (“6×His” disclosed as SEQ ID NO: 13). The cells were induced at OD600=0.6 with 1 mM isopropyl β-D-1-thiogalactopyranoside (IPTG) for 4 hours at 37° C., then harvested and resuspended in 25 mM Tris-HCl pH 7.5, 300 mM NaCl, 10% glycerol, 1 mM PMSF. For purification, the pellet was lysed with a tip sonicator, and pelleted at 22,000×g for 30 minutes at 4° C. The pellets were washed with 20 mM Tris-HCl pH 8.0, 150 mM NaCl, 1 M urea, 1.0% triton X-100 three times, and the inclusion body was dissolved in 20 mM Tris-HCl pH 8.0, 150 mM NaCl, 8 M urea, and 2 mM ß-mercaptoethanol (ß-me). The supernatant was purified with Ni-NTA resin (Qiagen), eluting with 20 mM Tris-HCl pH 8.0, 150 mM NaCl, 8 M urea, 2 mM ß-me, and 250 mM imidazole. Protein elutes were diluted to ˜0.1 mg/mL and dialyzed into buffers containing 10 mM Tris-HCl pH 8.0, 150 mM NaCl, 2 mM ß-me, with 4, 2, 1, or 0 M urea, at 4° C. for 8 hours for each urea gradient. Urea-free proteins were concentrated with Amicon spin filters (Millipore Sigma) to ˜1 mg/mL and biotinylated via the yBBr reaction according to reported procedures (e.g., reported in Yin, J. et al. Genetically encoded short peptide tag for versatile protein labeling by Sfp phosphopantetheinyl transferase. Proceedings of the National Academy of Sciences 102, 15815-15820 (2005)). Biotinylated proteins were pooled, concentrated, and loaded onto a Superdex™ 10/300 75 pg (Cytiva) SEC column and eluted in 20 mM HEPES pH 7.0, 200 mM NaCl, 5% glycerol, 0.5 mM tris(2-carboxyethyl) phosphine (TCEP). Fractions containing pure protein were collected, pooled, concentrated to ˜1 mg/mL and stored at −80° C. In some embodiments, such MDM2 preparation were utilized in biochemical assays.

`CC(=O)N[C@H](CC(=O)O)C(=O)N1CCC[C@@H]1C(=O)N[C@H](C)C(=O)N[C@H](Cc1c[nH]c2ccccc12)C(=O)N[C@H](CC(N)=O)C(=O)N[C@H](Cc1c[nH]cn1)C(=O)N[C@@H]1CSCC(=O)Nc2ccc(cc2)NC(=O)CSC[C@H](C(=O)N[C@H](CO)C(=O)N[C@H](CCC(=O)O)C(=O)N[C@@H](C(N)=O)C(C)C)NC(=O)[C@@H](C(C)C)NC(=O)[C@@H](Cc2ccccc2)NC(=O)[C@@H](C)NC(=O)[C@@H](C)NC(=O)[C@@H](Cc2ccc(O)cc2)NC(=O)[C@@H](CCC(=O)O)NC1=O` [H102, Ac-dpawnhceyaafvcsev-NH2] (Ac-[dD][dP][dA][dW][dN][dH][dC][dE][dY][dA][dA][dF][dV][dC][dS][dE][dV]-NH2; linker 7-14 via Phenylene(1,4-NHCOCH2)2) and `CCCC[C@H]1NC(=O)[C@@H](CC(=O)O)NC(=O)[C@@H](C)NC(=O)[C@@H](C)NC(=O)[C@@H](CC(C)C)NC(=O)[C@@H](CC(N)=O)NC(=O)[C@H](NC(=O)[C@@H](CCC(=O)O)NC(=O)[C@H](NC(=O)[C@@H](CC(C)C)NC(=O)[C@@H](C)NC(=O)[C@H]2CCCN2C(=O)[C@@H](CC(=O)O)NC(C)=O)C(C)C)CSCC(=O)Nc2ccc(cc2)NC(=O)CSC[C@H](C(=O)N[C@H](Cc2c[nH]cn2)C(=O)N[C@H](Cc2ccccc2)C(=O)N[C@H](Cc2ccc(O)cc2)C(N)=O)NC1=O` [H104, Ac-dpalvecnlaadm*chfy-NH2] (Ac-[dD][dP][dA][dL][dV][dE][dC][dN][dL][dA][dA][dD][dNle][dC][dH][dF][dY]-NH2; linker 7-14 via Phenylene(1,4-NHCOCH2)2) are within 0.2 log units of each other in pKd: 5.57 for the first, 5.74 for the second.

Compared with `CCCC[C@H]1NC(=O)[C@@H](C)NC(=O)[C@@H](C)NC(=O)[C@@H](CCC(=O)O)NC(=O)[C@@H](CCCC)NC(=O)[C@H](NC(=O)[C@@H](CCC(=O)O)NC(=O)[C@@H](Cc2ccc(O)cc2)NC(=O)[C@@H](Cc2c[nH]c3ccccc23)NC(=O)[C@@H](C)NC(=O)[C@H]2CCCN2C(=O)[C@@H](CC(=O)O)NC(C)=O)CSCC(=O)Nc2ccc(cc2)NC(=O)CSC[C@H](C(=O)N[C@H](CCC(N)=O)C(=O)N[C@H](CCC(N)=O)C(=O)N[C@@H](C(N)=O)C(C)C)NC(=O)[C@@H](CCCC)NC1=O` [H103, Ac-dpawyecm*eaam*m*cqqv-NH2] (Ac-[dD][dP][dA][dW][dY][dE][dC][dNle][dE][dA][dA][dNle][dNle][dC][dQ][dQ][dV]-NH2; linker 7-14 via Phenylene(1,4-NHCOCH2)2), `CCCC[C@H]1NC(=O)[C@@H](C)NC(=O)[C@@H](C)NC(=O)[C@@H](CCCC)NC(=O)[C@@H](C(C)C)NC(=O)[C@H](NC(=O)[C@@H](CCC(N)=O)NC(=O)[C@@H](Cc2c[nH]c3ccccc23)NC(=O)[C@@H](CO)NC(=O)[C@@H](C)NC(=O)[C@H]2CCCN2C(=O)[C@@H](CC(=O)O)NC(C)=O)CSCC(=O)Nc2ccc(cc2)NC(=O)CSC[C@H](C(=O)N[C@@H](C(=O)N[C@H](CC(C)C)C(=O)N[C@H](CC(=O)O)C(N)=O)C(C)C)NC(=O)[C@@H](CC(=O)O)NC1=O` [H109, Ac-dpaswqcvm*aam*dcvld-NH2] (Ac-[dD][dP][dA][dS][dW][dQ][dC][dV][dNle][dA][dA][dNle][dD][dC][dV][dL][dD]-NH2; linker 7-14 via Phenylene(1,4-NHCOCH2)2) is 0.44 log units lower in pKd: 6.06 for the first, 5.62 for the second.

`CCCC[C@@H](NC(=O)[C@@H](CCC(N)=O)NC(=O)[C@@H](CC(C)C)NC(=O)[C@H]1CSCC(=O)Nc2ccc(cc2)NC(=O)CSC[C@@H](NC(=O)[C@H](NC(=O)[C@@H](C)NC(=O)[C@@H](Cc2c[nH]c3ccccc23)NC(=O)[C@@H](C)NC(=O)[C@H]2CCCN2C(=O)[C@@H](CC(=O)O)NC(C)=O)[C@H](C)O)C(=O)N[C@H](CCCC)C(=O)N[C@H](CC(=O)O)C(=O)N[C@H](C)C(=O)N[C@H](C)C(=O)N[C@H](CC(C)C)C(=O)N[C@H](CC(N)=O)C(=O)N1)C(N)=O` [H106, Ac-dpawatcm*daalnclqm*- NH2] (Ac-[dD][dP][dA][dW][dA][dT][dC][dNle][dD][dA][dA][dL][dN][dC][dL][dQ][dNle]-NH2; linker 7-14 via Phenylene(1,4-NHCOCH2)2) was tested, and the pKd was 5.74.

Same assay, conditions: SPR, 25° C., 7-point two-fold dilution, top concentration 5 μM, N=1; read-out: Measured KD

`CC(=O)N[C@H](CC(=O)O)C(=O)N1CCC[C@@H]1C(=O)N[C@H](C)C(=O)N[C@H](CO)C(=O)N[C@H](CCCNC(=N)N)C(=O)N[C@H](CC(N)=O)C(=O)N[C@@H]1CSCC(=O)Nc2ccc(cc2)NC(=O)CSC[C@H](C(=O)N[C@H](CCC(=O)O)C(=O)N[C@H](Cc2ccc(O)cc2)C(=O)N[C@H](Cc2c[nH]c3ccccc23)C(N)=O)NC(=O)[C@@H](CC(C)C)NC(=O)[C@@H](Cc2c[nH]cn2)NC(=O)[C@@H](C)NC(=O)[C@@H](C)NC(=O)[C@@H](Cc2c[nH]c3ccccc23)NC(=O)[C@@H](CCC(N)=O)NC1=O` [H107, Ac-dpasrncqwaahlceyw-NH2] (Ac-[dD][dP][dA][dS][dR][dN][dC][dQ][dW][dA][dA][dH][dL][dC][dE][dY][dW]-NH2; linker 7-14 via Phenylene(1,4-NHCOCH2)2) gave a pKd of 5.96.

Reference: patent US20240391956A1, “STAPLED PEPTIDES AND METHODS THEREOF” (FOG PHARMACEUTICALS, INC., priority 2023, published 2024)
